Laboratory results published in patent US4220643A, “Nitrosourea pentose compounds” (priority 1977, dated 1980).

Legend:
experimental tumors = details: wide variety of experimental tumors; refers to U.S. Pat. No. 4,086,415; cited from earlier work
Leukemia L 1210 cells = assay: Anti-leukemic activity on Leukemia L 1210 in mice (60 days observation); type: in vivo, mice (male BDF1); details: for ILS (percentage increase in life-span) / Mean survival days: 60 days observation
Protocol: The anti-leukemic activity of both the anomers of this invention was tested on Leukemia L 1210 in mice, details of which are given below. By way of comparison, the 1-methyl homologue of the β-anomer of this invention, i.e. 1-methyl-1-nitroso-3-(β-D-ribofuranosyl) urea (refer to T. Suami et al., Japanese Patent Prepublication No. 83365/75), was tested in a similar way.
Male BDF1 mice, aged about 7-weeks old and weighing 22±3 g were used in groups of three animals each for the test of compounds No. 1 and No. 2 or of two animals each for the test of compound No. 3.
Leukemia L 1210 cells were used. For the test of compounds No. 1 and No. 2, 2×10^6 cells/0.04 ml/mouse were intraperitoneally inoculated and for the test of compound No. 3, 1.8×10^6 /0.04 ml/mouse were intraperitoneally inoculated.
The test compound was dissolved in a physiological salt solution to give a series of solutions in predetermined concentrations and 0.1 ml of the each solution was administered intraperitoneally to each mouse once a day from the 24th hour after the tumor cell inoculation for 3 consecutive days for the test of compounds No. 1 and No. 2 or for 2 consecutive days for the test of compound No. 3. The anti-leukemic activity of the compounds tested was assessed by mean survival days, percentage increase in life-span, number of survivors after 60 days observation and the volume of ascites. The percentage increase in life-span (ILS) was calculated as follows: […]
T: The mean survival days of the treated animals
C: The mean survival days of the untreated animals
The control test for this purpose was carried out in the same way as that used for the test of compounds No. 1 and No. 2 or for the test of compound No. 3 except that 0.1 ml of the physiological salt solution was administered in place of the solution of the test compound.

[1] = Acute toxicity in intraperitoneal administration to BDF1 mice; details: mouse, in vivo, ip
Source text: The nitrosourea compounds according to this invention are further characterized by their low toxicity. Thus, acute toxicity of the compounds in intraperitoneal administration to BDF1 mice is as follows: […]

[2] = 1 mg/kg i.p. once daily, 3 consecutive days
[3] = 2 mg/kg i.p. once daily, 3 consecutive days
[4] = 2 mg/kg i.p. once daily, 3 consecutive days, untreated control 4.5 ml
[5] = 4 mg/kg i.p. once daily, 3 consecutive days
[6] = 4 mg/kg i.p. once daily, 3 consecutive days, untreated control 4.5 ml
[7] = 8 mg/kg i.p. once daily, 3 consecutive days
[8] = 8 mg/kg i.p. once daily, 3 consecutive days, untreated control 4.5 ml
[9] = 16 mg/kg i.p. once daily, 3 consecutive days
[10] = 16 mg/kg i.p. once daily, 3 consecutive days, untreated control 4.5 ml
[11] = dose not given, i.p. once daily, 3 consecutive days
[12] = 50 mg/kg i.p. once daily, 2 consecutive days
[13] = 100 mg/kg i.p. once daily, 2 consecutive days
[14] = 200 mg/kg i.p. once daily, 2 consecutive days
[15] = 250 mg/kg i.p. once daily, 2 consecutive days

| SMILES | Number of survivors (after 60 days) (Leukemia L 1210 cells; [3]) | ILS (percentage increase in life-span) (Leukemia L 1210 cells; [3]) | Mean survival days (Leukemia L 1210 cells; [3]) | Volume of ascites (Leukemia L 1210 cells; [4]) | Number of survivors (after 60 days) (Leukemia L 1210 cells; [5]) | ILS (percentage increase in life-span) (Leukemia L 1210 cells; [5]) | Mean survival days (Leukemia L 1210 cells; [5]) | Volume of ascites (Leukemia L 1210 cells; [6]) | Number of survivors (after 60 days) (Leukemia L 1210 cells; [7]) | ILS (percentage increase in life-span) (Leukemia L 1210 cells; [7]) | Mean survival days (Leukemia L 1210 cells; [7]) | Volume of ascites (Leukemia L 1210 cells; [8]) | Number of survivors (after 60 days) (Leukemia L 1210 cells; [9]) | ILS (percentage increase in life-span) (Leukemia L 1210 cells; [9]) | Mean survival days (Leukemia L 1210 cells; [9]) | Volume of ascites (Leukemia L 1210 cells; [10]) | LD50 [1] | also measured |
| --- | --- | --- | --- | --- | --- | --- | --- | --- | --- | --- | --- | --- | --- | --- | --- | --- | --- | --- |
| O=NN(CCCl)C(=O)N[C@@H]1O[C@H](CO)[C@@H](O)[C@H](O)[C@H]1O [GANU, 1-(2-chloroethyl)-3-(β-D-glucopyranosyl)-1-nitrosourea] |  |  |  |  |  |  |  |  |  |  |  |  |  |  |  |  |  | Antitumor activity, in words (experimental tumors): broad spectrum of antitumor activity against a wide variety of experimental tumors |
| O=NN(CCCl)C(=O)N[C@H]1O[C@H](CO)[C@@H](O)[C@H]1O [compound 1, 1-(2-chloroethyl)-1-nitroso-3-(α-D-ribofuranosyl) urea] | 0/3 | 50.0% | 15.3 days | 0 mL | 2/3 | > 383.0% | > 48.3 days | 0 mL | 2/3 | > 323.0% | > 42.3 days | 0 mL | 0/3 | 13.0% | 11.3 days | 0 mL | 34 mg/kg | Number of survivors (after 60 days) (Leukemia L 1210 cells; [2]): 0/3; ILS (percentage increase in life-span) (Leukemia L 1210 cells; [2]): 37.0%; Mean survival days (Leukemia L 1210 cells; [2]): 13.7 days; Volume of ascites (Leukemia L 1210 cells; 1 mg/kg i.p. once daily, 3 consecutive days, untreated control 4.5 ml): 1.7 mL |
| O=NN(CCCl)C(=O)N[C@@H]1O[C@H](CO)[C@@H](O)[C@H]1O [compound 2, 1-(2-chloroethyl)-1-nitroso-3-(β-D-ribofuranosyl) urea] | 1/3 | > 223.0% | > 32.3 days | 0 mL | 2/3 | > 360.0% | > 46.0 days | 0 mL | 3/3 | > 500.0% | > 60.0 days | 0 mL | 0/3 | -13.0% | 8.7 days | 0 mL | 30 mg/kg | Number of survivors (after 60 days) (Leukemia L 1210 cells; [11]): 0/3; ILS (percentage increase in life-span) (Leukemia L 1210 cells; [11]): 53.0%; Mean survival days (Leukemia L 1210 cells; [11]): 15.3 days; Volume of ascites (Leukemia L 1210 cells; dose not given, i.p. once daily, 3 consecutive days, untreated control 4.5 ml): 2.5 mL |
| CN(N=O)C(=O)N[C@@H]1O[C@H](CO)[C@@H](O)[C@H]1O [compound 3, 1-methyl-1-nitroso-3-(β-D-ribofuranosyl) urea, reference compound] |  |  |  |  |  |  |  |  |  |  |  |  |  |  |  |  |  | Number of survivors (after 60 days) (Leukemia L 1210 cells; [12]): 0/2; ILS (percentage increase in life-span) (Leukemia L 1210 cells; [12]): 50.0%; Mean survival days (Leukemia L 1210 cells; [12]): 15.0 days; Volume of ascites (Leukemia L 1210 cells; 50 mg/kg i.p. once daily, 2 consecutive days, untreated control 5.3 ml): 4.6 mL; Number of survivors (after 60 days) (Leukemia L 1210 cells; [13]): 0/2; ILS (percentage increase in life-span) (Leukemia L 1210 cells; [13]): 50.0%; Mean survival days (Leukemia L 1210 cells; [13]): 15.0 days; Volume of ascites (Leukemia L 1210 cells; 100 mg/kg i.p. once daily, 2 consecutive days, untreated control 5.3 ml): 0.7 mL; Number of survivors (after 60 days) (Leukemia L 1210 cells; [14]): 0/2; ILS (percentage increase in life-span) (Leukemia L 1210 cells; [14]): 80.0%; Mean survival days (Leukemia L 1210 cells; [14]): 18.0 days; Volume of ascites (Leukemia L 1210 cells; 200 mg/kg i.p. once daily, 2 consecutive days, untreated control 5.3 ml): 0.3 mL; Number of survivors (after 60 days) (Leukemia L 1210 cells; [15]): 0/2; ILS (percentage increase in life-span) (Leukemia L 1210 cells; [15]): 15.0%; Mean survival days (Leukemia L 1210 cells; [15]): 11.5 days; Volume of ascites (Leukemia L 1210 cells; 250 mg/kg i.p. once daily, 2 consecutive days, untreated control 5.3 ml): 0.6 mL |
